“Also recorded” adds a separate entry of the source. Counter-ions that a name gives are not always drawn. Like-named read-outs stand apart in the source and are kept apart here.

The subject of data set [1] is Klebsiella acrogenes A. The data set can be described thus: Growth inhibition and synergism. The data set is classed as cell-based, Klebsiella aerogenes. Conditions: 5 μg/ml. of clavulanic acid also present.
Data set [2] in a line: Stability in human blood. Type of data set: in vitro ADME.
In data set [3] the target is T1, β-lactamase produced by Escherichia coli JT4 (Escherichia coli, UniProt P62593).
T1 construct: the cell debris was removed by centrifugation and aliquots of the supernatant stored deep frozen; endogenous in cells; host or cells: Escherichia coli JT4 (R factor), ultrasonic extract
T1 sequence (P62593 24-286 limits assumed): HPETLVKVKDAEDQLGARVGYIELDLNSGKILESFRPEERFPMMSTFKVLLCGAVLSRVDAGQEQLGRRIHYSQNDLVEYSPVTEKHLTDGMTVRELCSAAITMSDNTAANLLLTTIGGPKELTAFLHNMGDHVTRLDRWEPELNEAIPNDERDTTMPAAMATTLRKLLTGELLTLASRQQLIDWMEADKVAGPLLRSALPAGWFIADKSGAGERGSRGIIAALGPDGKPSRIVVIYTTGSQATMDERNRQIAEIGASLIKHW
The data set can be described thus: β-lactamase inhibition assay (Description 1). Type of data set: biochemical.
Experimental: Solutions containing clavulanic acid (culture filtrate, samples from isolation procedure and the like) are incubated for 15 minutes with a β-lactamase preparation in 0.05M phosphate buffer at pH 7 and 37° C. During this time, enzyme inhibition or inactivation occurs. Substrate (benzylpenicillin) is then added and incubation continued for 30 minutes at 37° C. The amount of enzymic degradation of the substrate to penicilloic acid is determined by the hydroxylamine assay for penicillin. The amount of β-lactamase used is such as to give 75% hydrolysis of the benzylpenicillin in 30 minutes at 37° C.
The extent of hydrolysis is a reflection of the amount of enzyme remaining uninhibited.
The β-lactamase produced by Escherichia coli JT4 is used as an enzyme.
The culture maintained on nutrient agar slopes, is inoculated into 400 ml. of sterile Tryptone medium contained in a 2 liter conical flask. This medium has the following composition Tryptone (Oxoid) 32 g/l, yeast extract (Oxoid) 20 g/l, Nacl 5 g/l and Cacl2 6H2 O 2.2 g/l. […]
Suitable dilutions of the inhibitor preparation and β-lactamase solution are mixed and incubated at 37° C. for 15 minutes (Test). […] The absorption of the final solutions is measured in an E.E.L. Colorimeter or a Spectrophotometer at 490 nm against the reagent blank.
The percentage inhibition of the β-lactamase is calculated as follows- - […]

Data set [4] concerns Klebsiella aerogenes 62. In words: Antibacterial synergism, microtitre method (MIC). Type of data set: cell-based.
The subject of data set [5] is Klebsiella aerogenes A. The data set can be described thus: Antibacterial synergism, microtitre method (MIC). Type of data set: cell-based.
Data set [6] has as its system Staphylococcus. In words: Antibacterial synergism, microtitre method (MIC). The data set is classed as cell-based.
Data set [7] concerns Klebsiella aerogenes E 70. The data set can be described thus: Antibacterial synergism, microtitre method (MIC). Type of data set: cell-based.
In data set [8] the test system is Enterobacter cleacea. In words: Antibacterial spectrum, microtitre method (MIC). Conditions: read-out: Minimum Inhibitory Concentration. The data set is classed as cell-based.
In data set [9] the test system is Enterohacter cloacae. In words: Antibacterial synergism, microtitre method (MIC). Type of data set: cell-based. Conditions: read-out: Minimum Inhibitory Concentration, agent alone.
Data set [10] relates to Staphylococcus aureus (Russell). The data set can be described thus: Antibacterial synergism, microtitre method (MIC). The data set is classed as cell-based. Particulars: Table 6.
Data set [11] is described as follows: Hydrolysis of ester to clavulanic acid in pH 7 buffer. The data set is classed as physicochemical. Particulars: buffered to pH 7 (0.05M phosphate, 37° C., 1 mg/ml, 2 hours in Example 29). The procedure: The reaction was followed by paper chromatography (bioautographic system). Using the butanol/ethanol/water system to follow the reaction over a period of 2 hours the zone of the methyl ester at Rf 0.79 decreased in size as the zone of clavulanic acid at Rf 0.12 increased.

For data set [12], the system named is Staphylococcus aureus (Russell). The data set can be described thus: Synergism of clavulanic acid methyl ester (M.I.C.). Conditions: in the presence of 1.0 μg/ml. clavulanic acid methyl ester. Type of data set: cell-based.
[13] abbreviates: +5 μg/ml benzyl ester of clavulanic acid.
[14] abbreviates: +5 μg/ml methyl ester of clavulanic acid.

With `CC1(C)S[C@@H]2[C@H](NC(=O)C(C(=O)O)c3ccccc3)C(=O)N2[C@H]1C(=O)O` (some centres unmarked) [carbenicillin], in [1], the “concentration of penicillin inhibiting growth” value is recorded as “less than 12.5 μg/ml”.
With `CC1(C)S[C@@H]2[C@H](NC(=O)Cc3ccccc3)C(=O)N2[C@H]1C(=O)O` [benzylpenicillin], in [1], the “concentration of penicillin inhibiting growth” value is reported as “less than 12.5 μg/ml”.
Regarding `O=C(O)[C@H]1/C(=C/CO)O[C@@H]2CC(=O)N21` [clavulanic acid, Z-(2R,5R)-3-(β-hydroxyethylidene)-7-oxo-4-oxa-1-azabicyclo[3,2,0]heptane-2-carboxylic acid], the “stability in human blood” value in data set [2] is “high stability”. In addition, the “mode of β-lactamase inhibition” value in [3] was “progressively and irreversibly inhibits”.
Take `CC1(C)S[C@@H]2[C@H](NC(=O)[C@H](N)c3ccccc3)C(=O)N2[C@H]1C(=O)O` [ampicillin]: the “MIC of Ampicillin + 5 μg/ml of Benzyl Ester of clavulanic acid” value in data set [4] (setting [13]) is 3.9 µg/mL; in data set [5] (setting [13]), 1.9 µg/mL; in [7] (setting [13]), 3.9 µg/mL. The figures for the “MIC of Ampicillin + 5 μg/ml of Methyl Ester of clavulanic acid” value in [4] (setting [14]), in [5] (setting [14]) and in data set [7] (setting [14]) were 3.9 µg/mL, 1.9 µg/mL and 3.9 µg/mL, respectively. The MIC in [6] (alone, inoculum 0.5×10^-2, read-out: Minimum Inhibitory Concentration, agent alone) amounted to 250 µg/mL.
As to `O=C(O)[C@H]1/C(=C/CO)O[C@@H]2CC(=O)N21` [clavulanic acid sodium salt, 3-(β-hydroxyethylidine)-7-oxo-4-oxa-1-azabicyclo [3,2,0]heptane-2-carboxylic acid sodium salt], the MIC in [8] stood at 62 µg/mL; in data set [6] (read-out: Minimum Inhibitory Concentration, agent alone), 62 µg/mL; in data set [9], 62 µg/mL. Further, the “Minimum Inhibitory Concentration, agent alone” value in [10] worked out at 15 µg/mL.
On to `COC(=O)[C@H]1/C(=C/CO)O[C@@H]2CC(=O)N21` [clavulanic acid methyl ester], for which the “hydrolysis of ester to clavulanic acid” value in data set [11] was “slowly hydrolyse to clavulanic acid; also recorded: Slow conversion of the ester to clavulanic acid”.
Consider `O=C(Cc1cccs1)N[C@@H]1C(=O)N2C(C(=O)[O-])=C(C[n+]3ccccc3)CS[C@H]12` [cephaloridine], for which, in data set [12], the “M.I.C. of antibiotic in presence of synergist” value is under 0.03 µg/mL.

The values above are taken from US6031093A, “Solid salts of clavulanic acid” (SmithKline Beecham p.l.c., priority 1995, dated 2000).
